{
  "source": "patent US20090298752A1",
  "about": "“APLIDINE TREATMENT OF CANCERS” (PHARMA MAR, S.A., priority 1999, published 2009)",
  "key": {"[1]": {"experiment": "Phase I, 24 h infusion every 2 weeks: toxicity and pharmacokinetics", "type": "in vivo, human", "method": "Aplidine is given as a 24 hour infusion every 2 weeks. The starting dose was 200 μg/m^2/d and dose escalation proceed including so far 400, 800, 1600, and 3200 μg/m^2/d. A total of 18 patients (M/F: 7/11, median age 52, OMS 0/1:10/8) have been entered. […] Among evaluable patients, toxicity consisted of mild grade I-II nausea/vomiting, grade I-II asthenia, and cramping occurring during or immediately after the infusion. No neuromuscular toxicity were reported at the evaluated doses. One patient with an advanced lung cancer and documented tumour progression at the dose of 1600 μg/m^2 developed a haemolytic anaemia and thrombocytopenia that was considered unlikely related to the study drug. […] An open 2-compartment model fits appropriately most plasma concentration profiles. […] The accrual is ongoing to determine the dose limiting toxicity and the dose to be recommended in phase II studies.\nAplidine was given to patients with solid tumour/NHL as a 24 hr infusion/q2w to 35 patients (median: age=51/ECOG=1) with solid tumour (32 pts) or NHL (3 pts). 23/35 patients were previously exposed to ≧3 previous lines of chemotherapy. Nine dose levels (200-7000 μg/m^2/w/q2w) and 65 cycles (120 infusions) were given. […] Toxicity consisted of G2-3 asthenia and emesis in 9-2 patients and 12-1 pts, respectively. G3 nausea/vomiting (≧5000 μg/m^2) was efficiently treated then prevented with 4HT3-regimens. […] At the dose of 5000 μg/m^2/w/q2w, 2 patients experienced transient muscle cramps with reversible G3 CPK-MM elevations. Among 9 patients treated at 6000 μg/m^2/w, 3 patients experienced an increase of CPK-MM and aldolase after the 3rd injection of aplidine. CPK elevations were G1-2 and not symptomatic in 2 patients but a G3 CPK elevation with G3 muscular pain and loss of muscle strength (DLT) was reported in 1 pt. This was reversible with no sequel. […] Ultrastructural electron microscopy indicated no morphological mitochondria alteration but a lost of the thick myosin filaments. At 7000 μg/m^2/q2w, 4 patients have been entered. […] Mechanistic hypothesis and preventive strategies against muscle toxicity are under evaluation."}, "[2]": {"test_system": "solid tumours and Non-Hodgkin's Lymphomas", "experiment": "Phase I, 1 h daily infusion x5 q3wk: antitumour activity", "type": "in vivo, human", "method": "The objectives are to determine the Maximum Tolerated Dose, the Dose Limiting Toxicity (DLT), the pharmacokinetics (PK) and the recommended dose for phase 2 studies that can be given in a daily 1 hour IV infusion×5 days q 3 weeks. Patients with solid tumours and low and intermediate grade Non-Hodgkin's Lymphomas were eligible. The daily starting dose of aplidine was 80 μg/m^2. Cohorts of 3 patients (pts) are treated at each level with dose escalation according to toxicity, 20 patients were treated with 6 dose levels ranging from 80 μg-720 μg/m^2, 1 patient is presently at the dose of 960 μg/m^2. At total of 48 cycles were administered. Non-haematological toxicities were grade 1 and 2 with fatigue reported in most pts. Grade 1 hypersensitivity reactions were documented in 7 patients. Other toxicities included nausea, anorexia, diarrhoea, and anxiety. […] PK analysis was performed in treatment course 1. Aplidine concentrations were analysed by LC tandem mass spectrography. […] Potentially therapeutic plasma concentrations ([…]) were achieved. […] Accrual is ongoing at 960 μg/m^2."}, "P388 leukaemia": {"test_system": "P388 leukaemia", "details": "mice; cited from earlier work"}, "[3]": {"details": "6000 μg/m^2/w, among 9 patients"}, "[4]": {"details": "6000 mcg/m^2/2 wks, 12 patients"}},
  "data": [
    {"substance": "aplidine", "values": [
      {"measurement": "transient muscle cramps with reversible G3 CPK-MM elevations", "setting": "[1]; 5000 μg/m^2/w/q2w", "value": 2, "unit": "patients"},
      {"measurement": "G3 CPK elevation with G3 muscular pain and loss of muscle strength (DLT)", "setting": "[1]; [3]", "value": 1, "unit": "pt"},
      {"measurement": "increase of CPK-MM and aldolase after the 3rd injection", "setting": "[1]; [3]", "value": 3, "unit": "patients"},
      {"measurement": "initial phase median half-life", "setting": "[1]; 2-compartment model, preliminary", "value": 38.4, "unit": "min"},
      {"measurement": "terminal phase median half-life", "setting": "[1]; 2-compartment model, preliminary, 24 h infusion", "value": 25.8, "unit": "h"},
      {"measurement": "Nausea/vomiting G2 (worst toxicity per patient)", "setting": "[1]; 200 mcg/m^2/2 wks, 3 patients", "value": 2},
      {"measurement": "Transaminitis G2 (worst toxicity per patient)", "setting": "[1]; 200 mcg/m^2/2 wks, 3 patients", "value": 1},
      {"measurement": "Asthenia G2 (worst toxicity per patient)", "setting": "[1]; 400 mcg/m^2/2 wks, 3 patients", "value": 2},
      {"measurement": "Hypertension G2 (worst toxicity per patient)", "setting": "[1]; 400 mcg/m^2/2 wks, 3 patients", "value": 1},
      {"measurement": "Nausea/vomiting G2 (worst toxicity per patient)", "setting": "[1]; 400 mcg/m^2/2 wks, 3 patients", "value": 1},
      {"measurement": "Flushing G1 (worst toxicity per patient)", "setting": "[1]; 800 mcg/m^2/2 wks, 3 patients", "value": 1},
      {"measurement": "Muscle cramps G1 + G2 (worst toxicity per patient)", "setting": "[1]; 800 mcg/m^2/2 wks, 3 patients", "value": 2},
      {"measurement": "Asthenia G2 (worst toxicity per patient)", "setting": "[1]; 1600 mcg/m^2/2 wks, 6 patients", "value": 2},
      {"measurement": "Asthenia G3 (worst toxicity per patient)", "setting": "[1]; 1600 mcg/m^2/2 wks, 6 patients", "value": 1},
      {"measurement": "Muscle cramps G1 + G2 (worst toxicity per patient)", "setting": "[1]; 1600 mcg/m^2/2 wks, 6 patients", "value": 1},
      {"measurement": "Nausea/vomiting G2 (worst toxicity per patient)", "setting": "[1]; 1600 mcg/m^2/2 wks, 6 patients", "value": 4},
      {"measurement": "Transaminitis G3 (worst toxicity per patient)", "setting": "[1]; 1600 mcg/m^2/2 wks, 6 patients", "value": "(1)"},
      {"measurement": "Asthenia G2 (worst toxicity per patient)", "setting": "[1]; 3200 mcg/m^2/2 wks, 3 patients", "value": 1},
      {"measurement": "Flushing G1 (worst toxicity per patient)", "setting": "[1]; 3200 mcg/m^2/2 wks, 3 patients", "value": 1},
      {"measurement": "Muscle cramps G1 + G2 (worst toxicity per patient)", "setting": "[1]; 3200 mcg/m^2/2 wks, 3 patients", "value": 2},
      {"measurement": "Muscle pain G2 (worst toxicity per patient)", "setting": "[1]; 3200 mcg/m^2/2 wks, 3 patients", "value": "(1)"},
      {"measurement": "Nausea/vomiting G3 (worst toxicity per patient)", "setting": "[1]; 3200 mcg/m^2/2 wks, 3 patients", "value": "(1)"},
      {"measurement": "Asthenia G2 (worst toxicity per patient)", "setting": "[1]; 4000 mcg/m^2/2 wks, 3 patients", "value": 1},
      {"measurement": "Flushing G1 (worst toxicity per patient)", "setting": "[1]; 4000 mcg/m^2/2 wks, 3 patients", "value": 1},
      {"measurement": "Muscle cramps G1 + G2 (worst toxicity per patient)", "setting": "[1]; 4000 mcg/m^2/2 wks, 3 patients", "value": 2},
      {"measurement": "Muscle pain G1 (worst toxicity per patient)", "setting": "[1]; 4000 mcg/m^2/2 wks, 3 patients", "value": 2},
      {"measurement": "Nausea/vomiting G2 (worst toxicity per patient)", "setting": "[1]; 4000 mcg/m^2/2 wks, 3 patients", "value": 2},
      {"measurement": "Pain central catheter G2 (worst toxicity per patient)", "setting": "[1]; 4000 mcg/m^2/2 wks, 3 patients", "value": 2},
      {"measurement": "Asthenia G3 (worst toxicity per patient)", "setting": "[1]; 5000 mcg/m^2/2 wks, 3 patients", "value": "(1)"},
      {"measurement": "CPK elevation G3 (worst toxicity per patient)", "setting": "[1]; 5000 mcg/m^2/2 wks, 3 patients", "value": "(1)[1]"},
      {"measurement": "CPK elevation G4 (worst toxicity per patient)", "setting": "[1]; 5000 mcg/m^2/2 wks, 3 patients", "value": "(1)[1]"},
      {"measurement": "Muscle cramps G1 + G2 (worst toxicity per patient)", "setting": "[1]; 5000 mcg/m^2/2 wks, 3 patients", "value": 2},
      {"measurement": "Muscle pain G1 (worst toxicity per patient)", "setting": "[1]; 5000 mcg/m^2/2 wks, 3 patients", "value": 1},
      {"measurement": "Muscle weakness G1 (worst toxicity per patient)", "setting": "[1]; 5000 mcg/m^2/2 wks, 3 patients", "value": 1},
      {"measurement": "Nausea/vomiting G2 (worst toxicity per patient)", "setting": "[1]; 5000 mcg/m^2/2 wks, 3 patients", "value": 1},
      {"measurement": "Transaminitis G2 (worst toxicity per patient)", "setting": "[1]; 5000 mcg/m^2/2 wks, 3 patients", "value": 1},
      {"measurement": "Asthenia G2 (worst toxicity per patient)", "setting": "[1]; [4]", "value": 6},
      {"measurement": "CPK elevation G2 (worst toxicity per patient)", "setting": "[1]; [4]", "value": "1(1)"},
      {"measurement": "CPK elevation G3 (worst toxicity per patient)", "setting": "[1]; [4]", "value": "1(1)"},
      {"measurement": "Muscle cramps G1 + G2 (worst toxicity per patient)", "setting": "[1]; [4]", "value": 1},
      {"measurement": "Muscle pain G1 (worst toxicity per patient)", "setting": "[1]; [4]", "value": 1},
      {"measurement": "Muscle pain G2 (worst toxicity per patient)", "setting": "[1]; [4]", "value": 2},
      {"measurement": "Muscle weakness G1 (worst toxicity per patient)", "setting": "[1]; [4]", "value": "1(1)"},
      {"measurement": "Muscle weakness G2 (worst toxicity per patient)", "setting": "[1]; [4]", "value": "1(1)"},
      {"measurement": "Nausea/vomiting G2 (worst toxicity per patient)", "setting": "[1]; [4]", "value": 2},
      {"measurement": "Asthenia G2 (worst toxicity per patient)", "setting": "[1]; 7000 mcg/m^2/2 wks, 7 patients", "value": 2},
      {"measurement": "CPK elevation G2 (worst toxicity per patient)", "setting": "[1]; 7000 mcg/m^2/2 wks, 7 patients", "value": 1},
      {"measurement": "Flushing G1 (worst toxicity per patient)", "setting": "[1]; 7000 mcg/m^2/2 wks, 7 patients", "value": 1},
      {"measurement": "Muscle pain G1 (worst toxicity per patient)", "setting": "[1]; 7000 mcg/m^2/2 wks, 7 patients", "value": 1},
      {"measurement": "Nausea/vomiting G2 (worst toxicity per patient)", "setting": "[1]; 7000 mcg/m^2/2 wks, 7 patients", "value": 1},
      {"measurement": "Neutrophenia G4 (worst toxicity per patient)", "setting": "[1]; 7000 mcg/m^2/2 wks, 7 patients", "value": 1},
      {"measurement": "Transaminitis G2 (worst toxicity per patient)", "setting": "[1]; 7000 mcg/m^2/2 wks, 7 patients", "value": 1},
      {"measurement": "terminal half-life", "setting": "[1]; Example 6", "value": "10 to 24", "unit": "h"},
      {"measurement": "dose limiting toxicity", "setting": "[1]; Example 6: 18 patients, 200-3200 μg/m^2/d", "value": "no dose limiting toxicity"},
      {"measurement": "clearance", "setting": "[1]; Example 14", "value": 332, "unit": "ml/mm.m^2"},
      {"measurement": "terminal half life", "setting": "[1]; Example 14", "value": "15 to 35", "unit": "h"},
      {"measurement": "G2 asthenia, patients", "setting": "[1]; Example 14, 35 patients", "value": 9, "unit": "patients"},
      {"measurement": "G2 emesis, patients", "setting": "[1]; Example 14, 35 patients", "value": 12, "unit": "pts"},
      {"measurement": "G3 asthenia, patients", "setting": "[1]; Example 14, 35 patients", "value": 2, "unit": "patients"},
      {"measurement": "G3 emesis, patients", "setting": "[1]; Example 14, 35 patients", "value": 1, "unit": "pts"},
      {"measurement": "cardiac toxicity", "setting": "[1]; Example 14, 35 patients", "value": "No cardiac toxicity"},
      {"measurement": "haematologic toxicity", "setting": "[1]; Example 14, 35 patients", "value": "No haematiologic toxicity"},
      {"measurement": "coefficient of variation of CL", "setting": "[1]; Example 18, interpatient", "value": 62, "unit": "%"},
      {"measurement": "t ½", "setting": "[1]; Example 18, median, quartiles 15.7-35.0", "value": 23.8, "unit": "h"},
      {"measurement": "plasma CL", "setting": "[1]; Example 18, median, quartiles 192-415", "value": 252, "unit": "mL/min/m^2"},
      {"measurement": "Vss", "setting": "[1]; Example 18, median, quartiles 274-638", "value": 413, "unit": "L/m^2"},
      {"measurement": "Plasma concentrations 24 h after the end of infusion, comparable to efficient in vitro concentrations", "setting": "[1]; doses ≧3000 μg/m^2/q2w", "value": "< 1", "unit": "ng/mL"},
      {"measurement": "duration of stable disease, colon cancer", "setting": "[2]; 1 patient", "value": 9, "unit": "months"},
      {"measurement": "response, renal cell cancer", "setting": "[2]; 1 patient", "value": "mixed response"},
      {"measurement": "objective responses", "setting": "[2]; in vivo", "value": "No objective responses"},
      {"measurement": "reduction in the size of the tumor, heavily pre-treated CRC", "setting": "[2]; one patient", "value": 40, "unit": "%"},
      {"measurement": "reduction in sum of tumour measurements, renal cell cancer and liver mets", "setting": "[2]; one patient, mixed responses", "value": 10, "unit": "%"},
      {"measurement": "duration of stable disease, heavily pre-treated CRC", "setting": "[2]; one patient, total 13 cycles", "value": "≥ 6", "unit": "months"},
      {"measurement": "activity against implanted tumour", "setting": "P388 leukaemia", "value": "active"}
    ]}
  ]
}
